US9040524B2, “Antifungal 5,6-dihydro-4H-pyrrolo[1,2-a][1,4]-benzodiazepines and 6H-pyrrolo[1,2-a][1,4]benzodiazepines substituted with bicycle benzene derivatives” (JANSSEN PHARMACEUTICA NV, priority 2010, dated 2015)

Key:
[1] = system: Trichophyton mentagrophytes; assay: Antifungal activity in vitro, resazurin growth inhibition screen: Trichophyton mentagrophytes; format: cell-based; conditions: Trichophyton mentagrophytes B70554; read-out: Inf. G pIC50 (converted)
Summary of the method: (§1)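 In this broth screen, 10^3 cfu of each cryopreserved isolate met compound dilutions reaching 64 μM at most. Viability was read with resazurin.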

Microsporum canis = assay: Antifungal activity in vitro, resazurin growth inhibition screen: Microsporum canis; format: cell-based; conditions: Microsporum canis B68128; read-out: Inf. B pIC50 (converted)
Summary of the method: as §1

Aspergillus fumigatus = assay: Antifungal activity in vitro, resazurin growth inhibition screen: Aspergillus fumigatus; format: cell-based; conditions: Aspergillus fumigatus B42928; read-out: Inf. E pIC50 (converted)
Summary of the method: as §1

Rhizopus oryzae = assay: Antifungal activity in vitro, resazurin growth inhibition screen: Rhizopus oryzae; format: cell-based; conditions: Rhizopus arrhizus; Rhizopus oryzae IHEM5223; read-out: Inf. J pIC50 (converted)
Protocol: (§2) The standard susceptibility screen was performed in 96-well plates (U-bottom, Greiner Bio-One). Serial dilutions (2-fold or 4-fold) of 20 mM compound stock solutions were made in 100% DMSO, followed by an intermediate dilution step in water. These serial dilutions (10 μl) were then spotted onto test-plates that could be stored in the dark at 4° C. for a maximum period of 2 weeks. An adequate broad dose-range was included with 64 μM as the highest in-test concentration. […] The different fungal species/isolates (Table 3a) were cryopreserved and 1/1000 diluted in medium just prior to use. A standard inoculum of 200 μl containing 10^3 colony-forming unit (cfu) was then added to each well. A positive control (100% growth=fungal culture without antifungal) and a negative control (0% growth=RPMI-MOPS medium) were included on each plate.

Scedosporium apiospermum = assay: Antifungal activity in vitro, resazurin growth inhibition screen: Scedosporium apiospermum; format: cell-based; conditions: Scedosporium apiospermum IHEM3817; read-out: Inf. H pIC50 (converted)
Protocol: as §2

Scedosporium prolificans = assay: Antifungal activity in vitro, resazurin growth inhibition screen: Scedosporium prolificans; format: cell-based; conditions: Lomentospora prolificans; Scedosporium prolificans IHEM21157; read-out: Inf. I pIC50 (converted)
Protocol: as §2

Cryptococcus neoformans = assay: Antifungal activity in vitro, resazurin growth inhibition screen: Cryptococcus neoformans; format: cell-based; conditions: Cryptococcus neoformans B66663; read-out: Inf. F pIC50 (converted)
Summary of the method: as §1

Rhizomucor miehei = assay: Antifungal activity in vitro, resazurin growth inhibition screen: Rhizomucor miehei; format: cell-based; conditions: Rhizomucor miehei IHEM13391; read-out: Inf. K pIC50 (converted)
Protocol: as §2

Trichophyton rubrum = assay: Antifungal activity in vitro, resazurin growth inhibition screen: Trichophyton rubrum; format: cell-based; conditions: Trichophyton rubrum B68183; read-out: Inf. C pIC50 (converted)
Summary of the method: as §1

Candida parapsilosis = assay: Antifungal activity in vitro, resazurin growth inhibition screen: Candida parapsilosis; format: cell-based; conditions: Lodderomyces parapsilosis; Candida parapsilosis B66126; read-out: Inf. D pIC50 (converted)
Summary of the method: as §1

Sporothrix schenkii = assay: Antifungal activity in vitro, resazurin growth inhibition screen: Sporothrix schenkii; format: cell-based; conditions: Sporothrix schenkii B62482; read-out: Inf. A pIC50 (converted)
Summary of the method: as §1

SMILES	IC50 [1]	IC50 (Microsporum canis)	IC50 (Aspergillus fumigatus)	IC50 (Rhizopus oryzae)	IC50 (Scedosporium apiospermum)	IC50 (Scedosporium prolificans)	melting point	IC50 (Cryptococcus neoformans)	IC50 (Rhizomucor miehei)	IC50 (Trichophyton rubrum)	IC50 (Candida parapsilosis)	IC50 (Sporothrix schenkii)
Clc1cccc2c1CN=C(c1ccc3c(c1)CCO3)c1cccn1-2 [Compound 35, 7-chloro-4-(2,3-dihydro-5-benzofuranyl)-6H-pyrrolo[1,2-a][1,4]benzodiazepine]	794 nM	1000 nM	2000 nM	> 64600 nM	38900 nM	1290 nM	206.4 to 208.9 °C	5010 nM	53700 nM	437 nM	2000 nM	14100 nM
Clc1cc(Cl)c2c(c1)-n1cccc1C(c1ccc3c(c1)CCO3)=NC2 [Compound 45, 7,9-dichloro-4-(2,3-dihydro-5-benzofuranyl)-6H-pyrrolo[1,2-a][1,4]benzodiazepine]	331 nM	257 nM	1000 nM	> 64600 nM	32400 nM	6170 nM	190 to 191.8 °C	1000 nM	> 64600 nM	331 nM	7940 nM	3020 nM
O=C1OCc2ccc(C3=NCc4c(F)cccc4-n4cccc43)cc21 [Compound 63, 6-(7-fluoro-6H-pyrrolo[1,2-a][1,4]benzodiazepin-4-yl)-1(3H)-isobenzofuranone]	> 64600 nM	55000 nM	> 64600 nM	> 64600 nM	933 nM	1580 nM	224.6 to 246 °C	> 64600 nM	> 64600 nM	7410 nM	> 64600 nM	> 64600 nM
Cl.Clc1cccc2c1CNC(c1ccc3c(c1)CCC3)c1cccn1-2 (stereo not drawn) [Compound 12, 7-chloro-4-(2,3-dihydro-1H-inden-5-yl)-5,6-dihydro-4H-pyrrolo[1,2-a][1,4]benzo-diazepine .HCl]	58.9 nM	380 nM	151 nM	> 64600 nM	> 64600 nM	> 64600 nM	242.7 to 243.5 °C	3020 nM	> 64600 nM	138 nM	575 nM	64600 nM

Further lines, results first:

IC50 [1]	IC50 (Microsporum canis)	IC50 (Aspergillus fumigatus)	IC50 (Rhizopus oryzae)	IC50 (Scedosporium apiospermum)	IC50 (Scedosporium prolificans)	melting point	IC50 (Cryptococcus neoformans)	IC50 (Rhizomucor miehei)	IC50 (Trichophyton rubrum)	IC50 (Candida parapsilosis)	IC50 (Sporothrix schenkii)	SMILES
603 nM	490 nM	46.8 nM	2000 nM	120 nM	39.8 nM	180 to 181.5 °C	339 nM	933 nM	170 nM	1410 nM	1380 nM	Clc1cccc2c1CN=C(c1ccc3c(c1)CCCC3)c1cccn1-2 [Compound 21, 7-chloro-4-(5,6,7,8-tetrahydro-2-naphthalenyl)-6H-pyrrolo[1,2-a][1,4]benzo-diazepine]
562 nM	170 nM	363 nM	> 64600 nM	447 nM	110 nM	226.7 to 227.6 °C	1320 nM	4790 nM	182 nM	2880 nM	2240 nM	O=C1CCc2cc(C3=NCc4c(Cl)cccc4-n4cccc43)ccc21 [Compound 56, 5-(7-chloro-6H-pyrrolo[1,2-a][1,4]benzodiazepin-4-yl)-2,3-dihydro-1H-inden-1-one]
324 nM	166 nM	135 nM	49000 nM	5890 nM	9330 nM	209.8 to 210.7 °C	417 nM	6920 nM	204 nM	> 64600 nM	2140 nM	O=C1CCCc2cc(C3=NCc4c(Cl)cccc4-n4cccc43)ccc21 [Compound 58, 6-(7-chloro-6H-pyrrolo[1,2-a][1,4]benzodiazepin-4-yl)-3,4-dihydro-1(2H)-naphthalenone]
